Assay results published in BindingDB's records for doi:10.3109/14756366.2012.732071 (Ondokuz Mayis University, 2013).

How the values were obtained:
Carbonic anhydrase 1 = Carbonic anhydrase 1 (Homo sapiens, UniProt P00915); assay: Esterase Assay; settings: pH 7.4; 25 °C
Protocol: (§1) The enzymatic reaction, in a total volume of 3.0 mL, contained 1.4 mL 0.05 M Tris-SO4 buffer (pH 7.4), 1 mL 3 mM NPA, 0.5 mL H2O and 0.1 mL enzyme solution. A reference measurement was obtained by preparing the same cuvette without enzyme solution. All compounds were tested in triplicate at each concentration used.

Carbonic anhydrase 2 = Carbonic anhydrase 2 (Homo sapiens, UniProt P00918); assay: Esterase Assay; settings: pH 7.4; 25 °C
Protocol: as §1

Chain of Carbonic anhydrase 1 (P00915 whole entry): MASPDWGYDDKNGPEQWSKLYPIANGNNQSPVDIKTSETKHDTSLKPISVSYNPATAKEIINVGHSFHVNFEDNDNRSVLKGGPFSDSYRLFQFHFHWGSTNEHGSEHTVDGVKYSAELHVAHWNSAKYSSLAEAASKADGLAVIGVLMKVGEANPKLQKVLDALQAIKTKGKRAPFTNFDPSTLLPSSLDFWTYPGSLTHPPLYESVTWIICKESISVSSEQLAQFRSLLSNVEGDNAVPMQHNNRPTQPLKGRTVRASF

SMILES | Ki (Carbonic anhydrase 1) | Ki (Carbonic anhydrase 2)
Cc1cccc(N2C(=O)[C@H](C)S[C@H]2c2sccc2C)n1 [Thiazolidin-based CA inhibitor, 5a] | 27.5 µM | 2.29 µM
Cc1cccc(N2C(=O)CSC2c2ccc(C)s2)n1 (stereo unspecified) [Thiazolidin-based CA inhibitor, 3] | 5.38 µM | 1.36 µM
Cc1cccc(N2C(=O)CSC2c2cccs2)n1 (stereo unspecified) [Thiazolidin-based CA inhibitor, 1] | 6.8 µM | 1.34 µM
Cc1cccc(N2C(=O)[C@@H](C)S[C@H]2c2sccc2C)n1 [Thiazolidin-based CA inhibitor, 5b] | 29.4 µM | 3.59 µM
Cc1cccc(N2C(=O)[C@@H](C)S[C@H]2c2ccc(C)s2)n1 [(2S,5R)-5-methyl-3-(6-methylpyridin-2-yl)-2-(5-methylthiophen-2-yl)thiazolidin-4-one] | 4.43 µM | 0.81 µM
Cc1cccc(N2C(=O)C(C)SC2c2cccs2)n1 (stereo unspecified) [Thiazolidin-based CA inhibitor, 4] | 5.51 µM | 1.32 µM
Cc1cccc(N2C(=O)CSC2c2sccc2C)n1 (stereo unspecified) [Thiazolidin-based CA inhibitor, 2] | 47.5 µM | 2.48 µM
Cc1cccc(N2C(=O)[C@H](C)S[C@H]2c2ccc(C)s2)n1 [(2S,5S)-5-methyl-3-(6-methylpyridin-2-yl)-2-(5-methylthiophen-2-yl)thiazolidin-4-one] | 5.58 µM | 0.93 µM
